Measurements from US20170258970A1, “POLYMER-DRUG CONJUGATE BASED ON A POLYISOOLEFIN-BASED COPOLYMER” (ARLANXEO Singapore Pte. Ltd., priority 2014, published 2017).

Test system: C2C12 mouse myoblast cells
Experiment: MTT assay of film leachate toxicity
Format: cell-based
Details: 24 h exposure
Method: Toxicity studies were also performed using the MTT assay to evaluate whether films of 3.0a-c on stainless steel would release toxic levels of paclitaxel or any other leachate during a defined incubation period in cell culture media.
Preparation of leachate: Test samples were melt-pressed to a thickness of 0.4 mm. The melt pressed film was then cut into squares of 1 cm×1 cm. Samples were sterilized by washing with 70% ethanol and subsequently dried for 2 h under UV light. […]
MTT assay: C2C12 mouse myoblast cells were seeded in a Nunclon™ 96-well U bottom transparent polystrol plate to obtain 10,000 cells/well in 100 μL of DMEM containing serum, glutamax and antibiotics as described above. […] After shaking (1 second, 2 mm amp, 654 rpm), the absorbance of the wells at 540 nm was read using an M1000-Pro plate reader (Tecan). The absorbance of wells not containing cells but treated by all of the above steps was subtracted as a background and the cell viability was calculated relative to wells containing cells that were exposed to just culture medium. No (0%) cell viability was detected for the cells exposed to the highest concentrations of the positive control sodium lauryl sulfate, confirming the sensitivity of the assay.

## CCCCCCCCCCCCOS(=O)(=O)[O-].[Na+] [SDS, sodium dodecyl sulfate]
At 0.2 μg/mL
  cell viability: < 10%
Highest concentrations of the positive control
  cell viability: 0%
